Data: patent publication US20100190755A1, “TETRACYCLINE COMPOUNDS FOR THE TREATMENT OF RHEUMATOID ARTHRITIS AND RELATED METHODS OF TREATMENT” (priority 2008, published 2010)
≈ marks a conversion by molar mass, not a printed value.

Each compound was assayed on S. aureus RN450 (assay: Antibacterial activity MIC, Gram+ (Table 9)). Details: Staphylococcus aureus, CAMHB, 35° C., approximately 18 hr.
Assay type: cell-based
Protocol: (§1) 2 mg of each compound is dissolved in 100 μl of DMSO. The solution is then added to cation-adjusted Mueller Hinton broth (CAMHB), which results in a final compound concentration of 200 μg per ml. The tetracycline compound solutions are diluted to 50 μL volumes, with a test compound concentration of 0.098 μg/ml. Optical density (OD) determinations are made from fresh log-phase broth cultures of the test strains. Dilutions are made to achieve a final cell density of 1×10^6 CFU/ml. At OD=1, cell densities for different genera should be approximately:
(§2) 50 μl of the cell suspensions are added to each well of microtiter plates. The final cell density should be approximately 5×10^5 CFU/ml. These plates are incubated at 35° C. in an ambient air incubator for approximately 18 hr. The plates are read with a microplate reader and are visually inspected when necessary. The MIC is defined as the lowest concentration of the tetracycline compound that inhibits growth.

| SMILES | MIC |
| --- | --- |
| CC(C)c1cc(N(C)C)c2c(c1O)C(=O)C1=C(O)[C@]3(O)C(=O)C(C(N)=O)=C(O)C[C@@H]3C[C@@H]1C2 [AU] | 1 µg/mL (≈ 2.19 µM) |
| CN(C)c1cc(CC(C)(C)C)c(O)c2c1C[C@H]1C[C@H]3CC(O)=C(C(N)=O)C(=O)[C@@]3(O)C(O)=C1C2=O [AW] | 0.5 µg/mL (≈ 1.03 µM) |
| CN(C)c1cc(C(=O)CC(C)(C)C)c(O)c2c1C[C@H]1C[C@H]3CC(O)=C(C(N)=O)C(=O)[C@@]3(O)C(O)=C1C2=O [AX] | 0.5 µg/mL (≈ 0.975 µM) |
| Cc1ccc(N(C)C)c2c1C(=O)C1=C(O)[C@]3(O)C(=O)C(C(N)=O)=C(O)C[C@@H]3C[C@@H]1C2 [AY] | 8 µg/mL (≈ 19.4 µM) |
| CN(C)c1cc(C(=O)c2ccccc2)c(O)c2c1C[C@H]1C[C@H]3CC(O)=C(C(N)=O)C(=O)[C@@]3(O)C(O)=C1C2=O [AZ] | 1 µg/mL (≈ 1.93 µM) |
| Cc1ccc(O)c2c1C[C@H]1C[C@H]3CC(O)=C(C(N)=O)C(=O)[C@@]3(O)C(O)=C1C2=O [BA] | 0.25 µg/mL (≈ 0.649 µM) |
| NC(=O)C1=C(O)C[C@@H]2C[C@@H]3Cc4c(-c5ncco5)ccc(O)c4C(=O)C3=C(O)[C@]2(O)C1=O [BB] | 8 µg/mL (≈ 18.2 µM) |
| CC(=O)c1ccc(O)c2c1C[C@H]1C[C@H]3CC(O)=C(C(N)=O)C(=O)[C@@]3(O)C(O)=C1C2=O [BC] | 4 µg/mL (≈ 9.68 µM) |
| CN(C)c1cc(C(F)(F)F)c(O)c2c1C[C@H]1C[C@H]3CC(O)=C(C(N)=O)C(=O)[C@@]3(O)C(O)=C1C2=O [BD] | 0.5 µg/mL (≈ 1.04 µM) |
| CN(C)[C@@H]1C(O)=C(C(N)=O)C(=O)[C@@]2(O)C(O)=C3C(=O)c4c(O)ccc(-c5ccc6c(c5)OCO6)c4C[C@H]3C[C@@H]12 [B] | 0.13 µg/mL (≈ 0.243 µM) |
| CC(=O)c1ccc(O)c2c1C[C@H]1C[C@H]3[C@H](N(C)C)C(O)=C(C(N)=O)C(=O)[C@@]3(O)C(O)=C1C2=O [C] | 0.06 µg/mL (≈ 0.131 µM) |
| CN(C)c1cc(C2CC2)c(O)c2c1C[C@H]1C[C@H]3CC(O)=C(C(N)=O)C(=O)[C@@]3(O)C(O)=C1C2=O [Compound AV] | 1 µg/mL (≈ 2.2 µM) |
| CN(C)c1cc(-c2ccccc2)c(O)c2c1C[C@H]1C[C@H]3[C@H](N(C)C)C(O)=C(C(N)=O)C(=O)[C@@]3(O)C(O)=C1C2=O [Compound A] | 1 µg/mL (≈ 1.87 µM) |
| CCC(=O)c1cc(N(C)C)c2c(c1O)C(=O)C1=C(O)[C@]3(O)C(=O)C(C(N)=O)=C(O)[C@@H](N(C)C)[C@@H]3C[C@@H]1C2 [Compound M] | 8 µg/mL (≈ 15.6 µM) |

The compounds below were run on E. coli 25922 (assay: Antibacterial activity MIC, Gram- (Table 9)). Details: Escherichia coli, CAMHB, 35° C., approximately 18 hr.
Assay type: cell-based
Protocol: as §1, §2

| SMILES | MIC |
| --- | --- |
| CC(C)c1cc(N(C)C)c2c(c1O)C(=O)C1=C(O)[C@]3(O)C(=O)C(C(N)=O)=C(O)C[C@@H]3C[C@@H]1C2 [AU] | > 64 µg/mL |
| CN(C)c1cc(CC(C)(C)C)c(O)c2c1C[C@H]1C[C@H]3CC(O)=C(C(N)=O)C(=O)[C@@]3(O)C(O)=C1C2=O [AW] | > 64 µg/mL |
| CN(C)c1cc(C(=O)CC(C)(C)C)c(O)c2c1C[C@H]1C[C@H]3CC(O)=C(C(N)=O)C(=O)[C@@]3(O)C(O)=C1C2=O [AX] | > 64 µg/mL |
| Cc1ccc(N(C)C)c2c1C(=O)C1=C(O)[C@]3(O)C(=O)C(C(N)=O)=C(O)C[C@@H]3C[C@@H]1C2 [AY] | > 64 µg/mL |
| CN(C)c1cc(C(=O)c2ccccc2)c(O)c2c1C[C@H]1C[C@H]3CC(O)=C(C(N)=O)C(=O)[C@@]3(O)C(O)=C1C2=O [AZ] | > 64 µg/mL |
| Cc1ccc(O)c2c1C[C@H]1C[C@H]3CC(O)=C(C(N)=O)C(=O)[C@@]3(O)C(O)=C1C2=O [BA] | 64 µg/mL (≈ 166 µM) |
| NC(=O)C1=C(O)C[C@@H]2C[C@@H]3Cc4c(-c5ncco5)ccc(O)c4C(=O)C3=C(O)[C@]2(O)C1=O [BB] | > 64 µg/mL |
| CC(=O)c1ccc(O)c2c1C[C@H]1C[C@H]3CC(O)=C(C(N)=O)C(=O)[C@@]3(O)C(O)=C1C2=O [BC] | > 64 µg/mL |
| CN(C)c1cc(C(F)(F)F)c(O)c2c1C[C@H]1C[C@H]3CC(O)=C(C(N)=O)C(=O)[C@@]3(O)C(O)=C1C2=O [BD] | > 64 µg/mL |
| CN(C)[C@@H]1C(O)=C(C(N)=O)C(=O)[C@@]2(O)C(O)=C3C(=O)c4c(O)ccc(-c5ccc6c(c5)OCO6)c4C[C@H]3C[C@@H]12 [B] | 64 µg/mL (≈ 120 µM) |
| CC(=O)c1ccc(O)c2c1C[C@H]1C[C@H]3[C@H](N(C)C)C(O)=C(C(N)=O)C(=O)[C@@]3(O)C(O)=C1C2=O [C] | 0.13 µg/mL (≈ 0.285 µM) |
| CN(C)c1cc(C2CC2)c(O)c2c1C[C@H]1C[C@H]3CC(O)=C(C(N)=O)C(=O)[C@@]3(O)C(O)=C1C2=O [Compound AV] | > 64 µg/mL |
| CN(C)c1cc(-c2ccccc2)c(O)c2c1C[C@H]1C[C@H]3[C@H](N(C)C)C(O)=C(C(N)=O)C(=O)[C@@]3(O)C(O)=C1C2=O [Compound A] | > 64 µg/mL |
| CCC(=O)c1cc(N(C)C)c2c(c1O)C(=O)C1=C(O)[C@]3(O)C(=O)C(C(N)=O)=C(O)[C@@H](N(C)C)[C@@H]3C[C@@H]1C2 [Compound M] | > 64 µg/mL |

These compounds were tested on collagen-induced arthritis (CIA) in male DBA/1 mice (assay: CIA model, Example 3 (cumulative scores vs untreated controls)). Details: Mus musculus; Dose 12 mg/kg.
Assay type: in vivo
Protocol: The CIA model data were acquired according to the following protocol: • 1. Male DBA/1 mice were anaesthetized by i.p. injection of ketamine/xylazine (1.25 mg/ml:0.25 mg/ml, 100 μl/mouse). • 2. Anaesthetized mice were immunized intradermally at the base of the tail with 0.1 or 0.2 ml of an emulsion composed of 100 or 200 μg bovine type II collagen in Complete Freund's Adjuvant (50 μl/spot x 2 or 4 spots). • 3. At day 21 after the immunization, mice received an intradermal boost of 100 μl of an emulsion composed of 100 μg bovine type II collagen in Incomplete Freund's Adjuvant (50 μl/spot x 2 spots) • 4. After onset of disease symptoms (usually 3-4 days after boost), tetracycline derivatives were administered daily into mice via intraperitoneal or oral routes for 8 to 15 days. Methotrexate (12 mg/kg/day) or dexmethasone (4 mg/kg/day) was used as a control for inflammation suppression. • 5. The disease severity was scored daily for 8-15 days after the appearance of the symptoms. Disease severity was graded as following: • a. Visual clinical score for the presence of inflammation in the fingers/toes of the forepaws and hindpaws: • 1. Erythema and mild swelling confined to the mid-foot (tarsals) or ankle joint • 2. Erythema and mild swelling extending from the ankle to the mid-foot • 3. Erythema and moderate swelling extending from the ankle to the metatarsal joints • 4. Erythema and severe swelling encompassing the ankle, foot, and digits. • b. Clinical swelling score for the presence of paw edema in the forepaws and hindpaws: • Paw thickness was measured daily by an engineering micrometer after isofluorane inhalation or ketamine/xylazine (1.25 mg/ml:0.25 mg/ml, 100 μl/mouse) i.p. injection.
Daily scores and paw swelling measurements for each treatment group of mice were added over the total observation period to obtain a cumulative score. Cumulative scores were compared between untreated controls and treated groups to determine tetracycline-induced inhibition.

| SMILES | inhibition in vivo at 12 mg/kg |
| --- | --- |
| CC(=O)c1ccc(O)c2c1C[C@H]1C[C@H]3[C@H](N(C)C)C(O)=C(C(N)=O)C(=O)[C@@]3(O)C(O)=C1C2=O [C] | 62% |

Same assay, conditions: Mus musculus; Dose 25 mg/kg

| SMILES | inhibition in vivo at 25 mg/kg |
| --- | --- |
| CC(C)c1cc(N(C)C)c2c(c1O)C(=O)C1=C(O)[C@]3(O)C(=O)C(C(N)=O)=C(O)C[C@@H]3C[C@@H]1C2 [AU] | 51% |
| CN(C)c1cc(CC(C)(C)C)c(O)c2c1C[C@H]1C[C@H]3CC(O)=C(C(N)=O)C(=O)[C@@]3(O)C(O)=C1C2=O [AW] | 39% |
| CN(C)c1cc(C(=O)CC(C)(C)C)c(O)c2c1C[C@H]1C[C@H]3CC(O)=C(C(N)=O)C(=O)[C@@]3(O)C(O)=C1C2=O [AX] | 51% |
| Cc1ccc(N(C)C)c2c1C(=O)C1=C(O)[C@]3(O)C(=O)C(C(N)=O)=C(O)C[C@@H]3C[C@@H]1C2 [AY] | 38% |
| CN(C)c1cc(C(=O)c2ccccc2)c(O)c2c1C[C@H]1C[C@H]3CC(O)=C(C(N)=O)C(=O)[C@@]3(O)C(O)=C1C2=O [AZ] | 36% |
| Cc1ccc(O)c2c1C[C@H]1C[C@H]3CC(O)=C(C(N)=O)C(=O)[C@@]3(O)C(O)=C1C2=O [BA] | 34% |
| NC(=O)C1=C(O)C[C@@H]2C[C@@H]3Cc4c(-c5ncco5)ccc(O)c4C(=O)C3=C(O)[C@]2(O)C1=O [BB] | 47% |
| CC(=O)c1ccc(O)c2c1C[C@H]1C[C@H]3CC(O)=C(C(N)=O)C(=O)[C@@]3(O)C(O)=C1C2=O [BC] | 72% |
| CN(C)c1cc(C(F)(F)F)c(O)c2c1C[C@H]1C[C@H]3CC(O)=C(C(N)=O)C(=O)[C@@]3(O)C(O)=C1C2=O [BD] | 44% |
| CN(C)[C@@H]1C(O)=C(C(N)=O)C(=O)[C@@]2(O)C(O)=C3C(=O)c4c(O)ccc(-c5ccc6c(c5)OCO6)c4C[C@H]3C[C@@H]12 [B] | 23% |
| CC(=O)c1ccc(O)c2c1C[C@H]1C[C@H]3[C@H](N(C)C)C(O)=C(C(N)=O)C(=O)[C@@]3(O)C(O)=C1C2=O [C] | 62% |
| CN(C)c1cc(C2CC2)c(O)c2c1C[C@H]1C[C@H]3CC(O)=C(C(N)=O)C(=O)[C@@]3(O)C(O)=C1C2=O [Compound AV] | 48% |
| CN(C)c1cc(-c2ccccc2)c(O)c2c1C[C@H]1C[C@H]3[C@H](N(C)C)C(O)=C(C(N)=O)C(=O)[C@@]3(O)C(O)=C1C2=O [Compound A] | 42% |
| COc1cc(-c2ccc(O)c3c2C[C@H]2C[C@H]4[C@H](N(C)C)C(O)=C(C(N)=O)C(=O)[C@@]4(O)C(O)=C2C3=O)cc(OC)c1OC [Compound D] | 27% |
| CCC(=O)c1cc(N(C)C)c2c(c1O)C(=O)C1=C(O)[C@]3(O)C(=O)C(C(N)=O)=C(O)[C@@H](N(C)C)[C@@H]3C[C@@H]1C2 [Compound M] | 25% |
| CN(C)c1ccc(O)c2c1C[C@H]1C[C@H]3CC(O)=C(C(N)=O)C(=O)[C@@]3(O)C(O)=C1C2=O [F] | 55% |
| C=CCc1cc(N(C)C)c2c(c1O)C(=O)C1=C(O)[C@]3(O)C(=O)C(C(N)=O)=C(O)[C@@H](N(C)C)[C@@H]3C[C@@H]1C2 [I] | 29% |
